We go through 90 compounds from PubChem BioAssay AID434951 (Broad Institute, 2010).

Activity calls are given as the source filed them.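 The calls were made as follows: active = a fitted half-maximal concentration EC50 for the rise in nuclear signal no higher than ten times the top dose tested; inconclusive = flat fit with activity between 30% and 70%, or unusable fit; inactive = EC50 beyond ten times the top dose.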 A value given as a limit tells only on which side of the number the result lay.

In this test the target is Hypoxia-inducible factor 1-alpha (Homo sapiens) (UniProt Q16665). The experiment in a line: HIF pathway activation, GFP-HIF1alpha translocation – imaging, fluorescence, U2OS GFP-HIF1alpha, confirmation (AID 434951). Conditions: U2OS GFP-HIF1alpha nuclear intensity, high-content imaging.
Hypoxia-inducible factor 1-alpha (Homo sapiens), sequence (Q16665 whole entry, looked up): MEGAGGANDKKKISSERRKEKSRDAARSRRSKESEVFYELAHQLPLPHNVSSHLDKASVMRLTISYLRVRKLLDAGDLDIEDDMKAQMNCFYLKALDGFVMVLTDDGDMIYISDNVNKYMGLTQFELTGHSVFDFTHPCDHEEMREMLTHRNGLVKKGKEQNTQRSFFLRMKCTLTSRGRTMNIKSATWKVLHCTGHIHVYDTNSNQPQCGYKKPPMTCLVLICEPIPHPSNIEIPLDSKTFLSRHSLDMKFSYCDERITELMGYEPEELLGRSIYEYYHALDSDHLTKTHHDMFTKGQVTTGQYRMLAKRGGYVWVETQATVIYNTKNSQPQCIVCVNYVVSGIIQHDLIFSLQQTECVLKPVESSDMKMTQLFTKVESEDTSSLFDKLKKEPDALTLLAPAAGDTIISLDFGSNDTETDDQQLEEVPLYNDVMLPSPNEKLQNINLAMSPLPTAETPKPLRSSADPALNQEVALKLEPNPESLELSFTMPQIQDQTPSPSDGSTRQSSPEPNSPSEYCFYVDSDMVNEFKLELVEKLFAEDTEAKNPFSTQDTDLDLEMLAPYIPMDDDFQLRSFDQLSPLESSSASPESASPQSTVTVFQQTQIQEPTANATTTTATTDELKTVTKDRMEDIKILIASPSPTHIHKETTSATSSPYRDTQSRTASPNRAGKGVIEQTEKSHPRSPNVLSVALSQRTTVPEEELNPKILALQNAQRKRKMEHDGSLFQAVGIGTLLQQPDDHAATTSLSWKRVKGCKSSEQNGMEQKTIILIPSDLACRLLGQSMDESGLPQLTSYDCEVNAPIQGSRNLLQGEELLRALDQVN
In general, EC50 refers to the concentration needed to bring the measured effect to its halfway point. As for `O=C(COC(=O)c1ccccc1Nc1ccccc1)NCc1ccccc1Cl`, the EC50 was > 35 µM (inactive). As to `Cc1cc(C)c2sc(NNC(=O)c3ccc(S(=O)(=O)N4CCc5ccccc5C4)cc3)nc2c1`, the half-maximal effective concentration (EC50) was 10.5 µM. On to `COc1cccc(/C=N/NC(=O)c2[nH]nc3c2CCc2ccccc2-3)c1O`, for which the EC50 is 1.94 µM. Take `COc1ccc(OC)c(NC(=O)CCc2nnc3ccc(NCc4ccco4)nn23)c1`: the EC50 was > 35 µM (inactive). Next, `O=C(N/N=C/c1cc(O)ccc1Br)c1cccnc1`: > 35 µM (inactive); `Cc1ccc(C(=O)CSc2cc(C)[nH]c(=O)n2)cc1`: > 35 µM (inactive); `Cc1nc(C(=O)Nc2ccc(Cl)cc2Cl)nn1-c1cc(OC(C)C)c(Cl)cc1Cl`: > 35 µM (inactive). To `CN(C)C=NC(=O)c1cn(-c2ccc(F)cc2)c(=O)c2ccccc12` belongs > 35 µM (inactive); to `COc1cccc(CNC(=O)CCCn2c(=S)[nH]c3cc4c(cc3c2=O)OCO4)c1`, > 35 µM (inactive).

In the case of `CCCCCCCCCS(=O)(=O)N/N=C/c1cccc([N+](=O)[O-])c1`, the EC50 was > 35 µM (inactive). To `O=C(CCSc1nc2ccccc2s1)N/N=C/c1c(O)ccc2ccccc12` belongs 11.5 µM; to `CCN(CC)c1ccc(NC(=O)Cn2nnc(-c3cccc(OC)c3OC)n2)c(C)c1`, > 35 µM (inactive).

As to `C(/CCc1ccccc1)=N\Nc1nc2ccccc2[nH]1`, the EC50 was 35.9 µM. As for `C=CCc1cccc(/C=N/NC(=O)c2ccc3nc[nH]c3c2)c1O`, the EC50 is 34.6 µM. To `O=C(N/N=C(\c1ccccc1)c1ccccn1)c1ccccc1Cl` belongs 11.2 µM; to `CN(C(=O)COC(=O)c1ccc(F)c(S(=O)(=O)N2CCOCC2)c1)C1CCS(=O)(=O)C1` (stereo not given), > 35 µM (inactive). To `CN(C)c1nc(-c2ccccn2)nnc1-c1ccccc1` belongs 6.68 µM. With `CN(C)C(=O)CSc1nc2ccccc2n1Cc1ccccc1`, the EC50 is > 35 µM (inactive). Regarding `CCn1ncc(C2=NOC(C(=O)Nc3ccc4c(c3)OCO4)C2)c1C` (stereo not given), the EC50 is > 35 µM (inactive). For the compound `Cc1ccn2cc(-c3ccc(O)c(O)c3)nc2c1`, the EC50 was > 35 µM (inactive). `COC(=O)Nc1ccc(S(=O)(=O)N(C)C)cc1`: the EC50 is > 35 µM (inactive). To `COc1ccc(NC(=O)CSc2nc3c(c(=O)[nH]2)CCC3)cc1OC` belongs > 35 µM (inactive). To `COc1ccccc1N(CC(=O)NC1CCCCC1)S(C)(=O)=O` belongs > 35 µM (inactive); to `Cn1c(CC(=O)Nc2ccccc2)cc2ccccc21`, > 35 µM (inactive); to `CCOC(=O)C1CCN(C(=O)C2CCCN(c3ncnc4c3nc3n4CCCCC3)C2)CC1` (stereo not given), > 35 µM (inactive).

In the case of `O=C(N/N=C/c1c(O)ccc2ccccc12)c1cccc(C(F)(F)F)c1`, the EC50 is 8.56 µM. Next, `CCOc1nc(NCCN2CCOCC2)nc(Nc2ccc(C)cc2)n1`: > 35 µM (inactive); `C=CCOc1ccc(/C=C2\SC(N)=NC2=O)cc1OC`: > 35 µM (inactive); `COc1cc(OC)c2nc(C)c3c(c2c1)N(c1ccc(O)cc1)CC3`: > 35 µM (inactive). Next, `COc1cc(C(=O)Oc2ccccc2/C=N/NC(=O)c2ccc(C)cc2)cc(OC)c1OC`: 13.8 µM; `CCc1ccc(OCC(=O)Nc2ccncc2)c(Br)c1`: > 35 µM (inactive); `CCOc1ccc(C(=O)NC(=S)Nc2cccc(NC(=O)c3ccco3)c2)cc1[N+](=O)[O-]`: > 35 µM (inactive).

In the case of `CN1CCC2(CC1)N=C(c1ccc(F)cc1)C(=S)N2C(=O)c1ccc(C(C)(C)C)cc1`, the EC50 was > 35 µM (inactive). As to `C/C(=N\NC(=O)Cc1ccc(Br)cc1)c1cccnc1`, the EC50 is > 35 µM (inactive). As to `Cc1ccc(S(=O)(=O)c2nc(-c3ccccc3Cl)oc2N(C)C)cc1`, the EC50 was > 35 µM (inactive).

Consider `COC(=O)C1=C(C)N(C)C(=O)NC1c1cc(Cl)c(O)c(OC)c1` (stereo not given), for which the EC50 is > 35 µM (inactive).

As to `Cc1ccc(N(C)S(=O)(=O)c2ccc(-c3cc(C)no3)s2)cc1`, the EC50 is > 35 µM (inactive).

Consider `COc1cccc(OCc2cc(C(=O)N3CCN(c4ccccc4OC)CC3)no2)c1`, for which the EC50 was > 35 µM (inactive).

As to `CCOC(=O)c1c(S(=O)(=O)NCc2ccc(C)o2)c(C)n(C)c1C`, the EC50 was > 35 µM (inactive). Next, `O=C(N/N=C\c1c(O)ccc2ccccc12)c1ccc(Cn2cccn2)o1`: 5.3 µM; `COCCN=c1scc(-c2cc(OC)c(OC)c(OC)c2)n1/N=C/c1c(C)[nH]c2ccccc12`: > 35 µM (inactive); `Cc1cc(/C=N/N2CCN(C)CC2)c(C)n1-c1ccc(Cl)cc1`: > 35 µM (inactive). In the case of `CCN(CC)c1ccc(/C=N/NC(=O)c2c(Cl)cnn2C)c(O)c1`, the EC50 was 2.05 µM.

For `COc1ccccc1C(=O)Nc1ccccc1SC(=O)c1ccccc1OC`, the EC50 is > 35 µM (inactive). To `Cn1cccc1-c1cc(C(=O)N/N=C/c2cc(Br)ccc2O)[nH]n1` belongs 4.69 µM. Next, `CC(C)CC(NC(=O)c1ccccc1NC(=O)c1ccccc1)C(=O)O` (stereo not given): > 35 µM (inactive); `CCOc1ccc(NC(=O)COc2ccccc2)c([N+](=O)[O-])c1`: > 35 µM (inactive). To `CCN(CC)CCOC(=O)C(Cc1ccco1)Cc1cccc2ccccc12` (stereo not given) belongs > 35 µM (inactive); to `O=C(/C=C/c1ccco1)Oc1cc(Br)cc(/C=N/NC(=O)c2ccccc2O)c1`, 5.43 µM. As for `Cc1cc(Cl)n2c(nc3cc(F)c(F)cc32)c1C#N`, the EC50 is > 35 µM (inactive). Next, `Cn1cc(CN2CCC(C(=O)Nc3cccc(-c4cscn4)c3)CC2)cn1`: > 35 µM (inactive).

As for `Cc1cc(N/N=C/c2ccc(O)cc2O)nc(-c2ccccc2O)n1`, the EC50 was 4.53 µM.

Take `CCN(CC)CCn1c2ccccc2c2cnc(N)c(C#N)c21`: the EC50 was > 35 µM (inactive). For the compound `O=C(NCCCN1CCN(c2ccccc2F)CC1)Nc1ccccc1[N+](=O)[O-]`, the EC50 is > 35 µM (inactive). To `CCCC1CCC(=C(C#N)C(N)=O)CC1` (stereo not given) belongs > 35 µM (inactive). To `O=[N+]([O-])c1cccc(/C=C/c2ccc3cccc(O)c3n2)c1` belongs 33.9 µM; to `Cc1ccn2c(Nc3ccccc3C)c(-c3ccccn3)nc2c1`, 6.66 µM; to `O=C(Nc1ccc2ccccc2c1)c1ccccc1O`, > 35 µM (inactive). With `CCn1c(SCC(=O)c2cc(C)ccc2C)nc2cc(S(=O)(=O)N3CCOCC3)ccc21`, the EC50 is > 35 µM (inactive). Next, `C=CCNC(=O)/C(=C/c1cn(-c2ccccc2)nc1-c1cccc([N+](=O)[O-])c1)NC(=O)c1ccccc1`: > 35 µM (inactive). Next, `CCCNC(=S)N1CCCC(c2nc3ccccc3[nH]2)C1` (stereo not given): > 35 µM (inactive); `COCCn1c(=NC(=O)c2ccc(S(=O)(=O)N3CCCc4ccccc43)cc2)sc2cc(S(C)(=O)=O)ccc21`: > 35 µM (inactive). Next, `Clc1ccc(CSc2ccc(-c3ccccn3)nn2)cc1`: 9.44 µM; `CCN(CC)c1ccc(/C=N/NC(=O)c2ccco2)c(O)c1`: 6.97 µM. For `CCCCC(=O)NC(c1ccc(Cl)cc1)c1ccc2cccnc2c1O` (stereo not given), the EC50 is 1.66 µM.

In the case of `N#CC(=C=[N-])c1nc2ccccc2nc1-[n+]1cccc(NC(=O)c2ccc(F)cc2)c1`, the EC50 was > 35 µM (inactive). Next, `O=C(N/N=C/c1ccccc1O)c1cccc(C(F)(F)F)c1`: 14.3 µM.

`O=c1c2ccccc2nc(COc2ccccc2)n1/N=C/c1ccc(O)cc1O`: the EC50 was 9.68 µM.

Consider `COC(=O)c1ccc(-n2cncn2)c([N+](=O)[O-])c1`, for which the EC50 is > 35 µM (inactive).

As for `Oc1[nH]c2ccc(Br)cc2c1N=NC(=S)N1CCOCC1`, the EC50 was 6.79 µM. `Oc1c(CN2CCOCC2)cc(COCc2ccccc2)c2cccnc12`: the EC50 was 6.71 µM. To `O=C(N/N=C/c1cccnc1)c1ccc(NC(=O)c2ccc(Cl)cc2)cc1` belongs > 35 µM (inactive); to `CC(=O)c1ccc(N2C(=NC(=O)COc3ccccc3)SC3CS(=O)(=O)CC32)cc1` (stereo not given), > 35 µM (inactive). In the case of `CCOC(=O)C1=C(c2ccccc2)NC(=O)NC1c1ccc(O)c(Cl)c1` (stereo not given), the EC50 was 12.7 µM.

For `CC(Sc1nnc(COc2ccc([N+](=O)[O-])cc2)n1C)C(=O)O` (stereo not given), the EC50 was > 35 µM (inactive). For `O=C(CC1SC(N2CCCC2)=NC1=O)Nc1ccc(C(=O)Nc2ncccc2O)cc1` (stereo not given), the EC50 was 29.7 µM.

`CCOc1ccc(/C=N/NC(=O)c2[nH]ncc2Br)c(O)c1`: the EC50 is 10.2 µM. Next, `O=C(NCc1cccs1)C1CC(=O)N(C2CCCC2)C1` (stereo not given): > 35 µM (inactive); `CCOc1ccc(NC(=O)C2CCN(S(=O)(=O)c3ccc4c(c3)N(C(C)=O)CCO4)CC2)cc1`: > 35 µM (inactive).

As for `C=CCOc1ccc(/C=C2\SC(=Nc3cccnc3)NC2=O)cc1`, the EC50 was > 35 µM (inactive). Next, `Cc1ccc(N=Nc2ccc(O)c(/C=N\NC(=O)c3ccc(N)cc3)c2)cc1C`: > 35 µM (inactive). To `Cc1nc2cc(-c3ccccc3)sc2c(=O)n1N` belongs > 35 µM (inactive); to `CC1(C)CC(NC(=O)CCC2CCCC2)CC(C)(C)N1`, > 35 µM (inactive). To `COc1ccc(NC(=O)CNC(=O)Cc2cccc3ccccc23)c(OC)c1` belongs > 35 µM (inactive); to `CCOC(=O)C(NC(C)=O)(N1CCOCC1)C(F)(F)F` (stereo not given), > 35 µM (inactive); to `Cc1ccc(S(=O)(=O)N2CC(C)N(C(=O)N3CCOCC3)C2C)cc1` (stereo not given), > 35 µM (inactive).

Take `CN(C1CCCC1)C1CCN(C(=S)Nc2cc(F)cc(F)c2)CC1`: the EC50 is > 35 µM (inactive). Next, `Oc1ccc(-c2cn3ccccc3n2)cc1O`: > 35 µM (inactive); `Cc1ccc2[nH]c(C(=O)N/N=C/c3ccccc3O)c(C)c2c1`: 7.06 µM. On to `Cc1c(Cl)c([N+](=O)[O-])nn1Cc1ccc(C(=O)N/N=C\c2cc(Cl)ccc2O)o1`, for which the EC50 was 9.26 µM.
